Source: US9150665B2, “Cellulose interpolymers and method of oxidation” (Eastman Chemical Company, priority 2003, dated 2015)
Values after ≈ are worked out from the molar mass of the structure shown.

Assay: physchem
Conditions: for % Drug Solubilized: pH 3.9; for Sw/So: pH 4; for solubility: water
Description: The heterogeneous mixture was mixed well before carefully adjusting the pH with 0.1 N NaOH until the CA dissolved giving a clear solution. […] Four independent aqueous CA solutions were prepared by this process. […] The ethanol solution of each drug was then added slowly to the aqueous CA solutions previously prepared.
All of the samples were filtered thru 0.45 micron syringe filters before measurement. […] Solutions of each of the oxidized CA:drug mixtures were also prepared in 50/50 ethanol/Millipore water. […] All samples were immediately analyzed for the amount of drug in the solution using an UV-Vis Spectrophotometer.

| Sw (amount of drug solubilized) | % Drug Solubilized [%] | Sw/So | solubility [µg/mL] | SMILES |
| --- | --- | --- | --- | --- |
| 1.2481 g/L/25 g of drug:CAOX | 90 | 1.9 | 650 (≈ 2220 µM) | CC(C)(C#N)c1cc(Cn2cncn2)cc(C(C)(C)C#N)c1 [anastrozole] |
| 0.1461 g/L/25 g of drug:CAOX | 7 | 1.2 | 120 (≈ 421 µM) | N#Cc1ccc(C(c2ccc(C#N)cc2)n2cncn2)cc1 [letrozole] |
